Results reported in patent US20190300892A1, “CONSTRUCTS AND METHODS FOR BIOSYNTHESIS OF GALANTHAMINE” (priority 2014, published 2019).
“Also recorded” adds a separate entry of the source. Read-outs that look alike come from different tables or passages of the source.

What was measured:
NpN4OMT1 = biological target: T1, NpN4OMT1 (Narcissus aff. pseudonarcissus MK-2014, UniProt A0A077EWA5); format: biochemical; conditions: for enzymatic activity upon addition of divalent cation: cation dependence test, 5 min assays, 4 μM norbelladine, 37° C.
T1 construct: made in house; host or cells: E. coli BL21(DE3) Codon Plus RIL
Experimental: Enzyme assays for initial testing of NpN4OMT1 contained 10 μg of pure protein with 200 μM AdoMet, 100 μM norbelladine and 30 mM potassium phosphate buffer pH 8.0 in 100 μl. The assays were incubated for 2 hr at 30° C. The vector control was an E. coli extract purified with TALON in the same way as the methyltransferase protein. For the vector control assay, an equal volume of the pure vector control extract was substituted for the NpN40MT1 protein in the enzyme assay. These assays were quenched by adjusting the pH to 9.5 with two volumes of sodium bicarbonate and extracted with two volumes ethyl acetate two times. After drying, the extracts were re-suspended in the initial mobile phase of the HPLC program. The HPLC separation of the assays was performed using a phenomenex Luna C8(2) 5 m 250×4.6 mm column with solvent A (0.1% formic acid in H2O) and solvent B (acetonitrile). The program started with 10% solvent B and a flow rate of 0.8 ml/min, a linear gradient began at 2 min to 30% at 15 min, 90% at 15.1 min, 90% at 20 min, 10% at 21 min and 10% at 28 min. Injection volume was 20 μl using a Waters auto-sampler. Waters UV detector was set to 277 nm.
After optimization of the NpN4OMT assay, the buffer was changed to […] glycine at pH 8.8, with 5 mM of MgCl2 added and the temperature was increased to 37° C. in 100 μl total reaction volume. When performing kinetic assays, the E. coli enzyme Pfs was added to break down SAH and prevent product inhibition. Papaverine was used as an internal standard.
With the same solvent system as for screening enzyme assays, the HPLC program started with 20% B and a flow rate of 0.8 ml/min, a linear gradient began at 2 min to 25.4% B at 7 min, 90% at 7.2 min, 90% at 9 min, 20% at 9.1 min and 20% at 14 min. A 4000 QTRAP mass spectrometer coupled to the same LC column and time program as used in HPLC was used to collect all compound mass and fragmentation data.
For NpN4OMT norbelladine kinetics an MRM program in positive ion mode was used to monitor the following fragments 260.00 [M+H]^+/138.00 [M−C8H9O]^+• m/z, 260.00 [M+H]^+/121.00 [M−C7H8NO2]^+• m/z, 274.00 [M+H]^+/137.00 [M+H—C8H9O2]^+ m/z, 274.00 [M+H]^+/122.00 [M+H—C8H10NO2]^+ m/z. The fragments with 260.00 [M+H]^+ m/z and 274.00 [M+H]^+ m/z molecular ions were replaced when looking at N-methylnorbelladine for 274.00 [M+H]^+/152.10 [M−C8H9O]^+• m/z, 274.00 [M+H]^+/121.00 [M−C9H12NO2]^+• m/z, 288.00 [M+H]^+/150.10 [M−C8H9O2]^+• m/z and 288.20 [M+H]^+/137.00 [M−C9H12NO]^+• m/z. Papaverine internal standard was monitored with the following fragments 340.40[M+H]^+/324.20 [M−CH3]^+• m/z and 340.40 [M+H]^+/202.10 [M−C8H9O2]^+• m/z. When conducting dopamine kinetics, galanthamine was used as the internal standard and samples were not ethyl acetate extracted prior to LC/MS/MS analysis. To remove protein, two volumes of acetonitrile were added followed by 1 hr at −20° C. and 10 min centrifugation at 16,100×g, 4° C. The supernatant was dried under vacuum and re-suspended in the starting mobile phase before analysis. The HPLC time program was changed to start at 5% solvent B with solution going to waste until 3.9 min, at 5 min start linear gradient to 25% B at […], 90% B at 9.5 min, 90% B at 11 min, 5% B at 11.1 min and 5% B at 16 min. Ions monitored in the MRM were 168.00 [M+H]^+/151.00 [M+H-OH]^+ m/z and 168.00 [M+H]^+/119.00 [M−OH—OCH3]^+• m/z. AdoMet steady state kinetic parameters were determined with norbelladine as the saturated substrate. Product was quantitated using HPLC with the 28 min program used for screening enzyme assays. Product for assays on the additional NpN4OMT variants was detected with this same 28 min program on HPLC.
When conducting kinetic experiments the K, was at least five fold higher than the minimum concentration of substrate and fivefold lower than the maximum concentration of substrate tested.

CYP96T1 = biological target: T2, CYP96T1 (Narcissus aff. pseudonarcissus MK-2014, UniProt A0A140IL90); format: biochemical; conditions: for product formation as CYP96T1 substrate: LC-MS/MS
T2 construct: made in house; host or cells: Spodoptera frugiperda Sf9 cells (Baculogold baculovirus, pVL1392)
T2 sequence (A0A140IL90 1-513): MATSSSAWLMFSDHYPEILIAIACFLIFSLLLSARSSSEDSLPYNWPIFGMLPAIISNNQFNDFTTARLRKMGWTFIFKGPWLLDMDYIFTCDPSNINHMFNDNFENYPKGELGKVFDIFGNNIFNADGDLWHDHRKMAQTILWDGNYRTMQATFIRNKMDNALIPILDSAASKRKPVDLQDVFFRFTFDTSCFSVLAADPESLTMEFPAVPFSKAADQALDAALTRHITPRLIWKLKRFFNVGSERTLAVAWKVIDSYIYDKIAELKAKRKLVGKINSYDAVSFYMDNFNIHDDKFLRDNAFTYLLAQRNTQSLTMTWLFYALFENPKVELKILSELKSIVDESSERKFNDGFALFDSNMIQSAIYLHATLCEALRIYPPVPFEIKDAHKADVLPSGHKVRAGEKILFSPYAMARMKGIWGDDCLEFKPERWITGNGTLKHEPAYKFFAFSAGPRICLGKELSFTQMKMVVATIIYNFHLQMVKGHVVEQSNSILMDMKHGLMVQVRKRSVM
Experimental: Recombinant protein production of NpN4OMT and norbelladine synthase/reductase in 1 L of E. coli and purification with TALON resin followed standard methods. No proteases were added to the protein extract, and desalting was performed with PD-10 columns from GE Healthcare. Protein quantity was determined according to Bradford; purity was monitored by SDS-PAGE. The E. coli cell line containing the hexahistidine-tagged methylthioadenosine/S-adenosylhomocysteine nucleosidase (Pfs) construct from Choi-Rhee and Cronan's work was used to purify Pfs protein. CYP96T1 was co-expressed with cytochrome P450 reductase in Spodoptera frugiperda Sf9 cells using Baculogold baculoviurus (BD Biosciences). Whole cell lysates were used in CYP96T1 enzyme assays.
CYP96T1 assays contained 30 mM KPO4 pH 8.0, 1.25 mM NADPH, 10 μM substrate and 70 μl of virus infected Sf9 cell suspension in 200 μl total volume. The assays were incubated for 2-4 hr at 30° C. 4′-O-metylnorbelladine was used as an initial test compound. Substrate specificity tests were done on 4′-O-methyl-N-methylnorbelladine, norbelladine, N-methylnorbelladine, 3′-O-methylnorbelladine, 3′,4′-O-dimethylnorbelladine, haemanthamine, (S)-coclaurine, (R)-coclaurine and mixed (10aR,4bR)- and (10aS,4bS)-noroxomaritidine. Assays derivatized with sodium borohydride were incubated 2 hr at 30° C. followed by addition of 0.5 volumes 0.5 M sodium borohydride in 0.5 M sodium hydroxide and incubated 30 min at RT. The CYP96T1 assay resolved on a Chiral-CBH column and assays measured with HPLC used fresh CYP96T1 and CPR expressing SF9 cell protein prepared using re-amplified virus. Enzyme assays on all substrates were extracted as previously described and run on a QTRAP 4000 coupled to a IL-20AC XR prominence liquid auto sampler, 20AD XR prominence liquid chromatograph and Phenomenex Luna 5 μm C8(2) 250×4.60 mm column. HPLC gradient and MS settings were as previously described for NpN4OMT. Assay specific MS/MS parameters are presented in
Table 4. Multiple Reaction Monitoring (MRM) parameters for relative quantification of (10aR,4bR)- and (10aS,4bS)-noroxomaritidine, N-demethylnarwedine, narwedine and the two unknown compounds are presented in Table5. For analysis of product chirality, a Chrom Tech, Inc. Chiral-CBH 100×4.0 mm, 5 μM column was used with a 30 min isocratic flow of 2.5% HPLC grade ethanol and 10 mM ammonium acetate with pH adjusted to 7.0 with ammonium hydroxide.

T1 sequence (A0A077EWA5 whole entry): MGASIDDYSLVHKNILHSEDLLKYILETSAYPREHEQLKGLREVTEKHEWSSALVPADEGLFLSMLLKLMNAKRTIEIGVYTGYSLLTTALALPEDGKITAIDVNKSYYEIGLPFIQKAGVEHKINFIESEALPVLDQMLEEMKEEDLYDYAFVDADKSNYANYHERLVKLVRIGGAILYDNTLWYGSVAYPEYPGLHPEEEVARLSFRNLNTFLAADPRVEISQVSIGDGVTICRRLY

SMILES: O=Cc1ccc(O)c(O)c1 [3,4-dihydroxybenzaldehyde]
- product formation / activity as NpN4OMT substrate (NpN4OMT1; text statement): Products were not detected; also recorded: lack of enzymatic activity

SMILES: COc1ccc(CNCCc2ccc(O)cc2)cc1OC [3′,4′-O-Dimethylnorbelladine]
- product formation as CYP96T1 substrate (CYP96T1): products were not detected

SMILES: COc1cc(CNCCc2ccc(O)cc2)ccc1O [3′-O-Methylnorbelladine]
- product formation as CYP96T1 substrate (CYP96T1): products were not detected

SMILES: COc1ccc(CN(C)CCc2ccc(O)cc2)cc1O [4′-O-Methyl-N-methylnorbelladine]
- product formation as CYP96T1 substrate (CYP96T1): One product is enzymatically produced

SMILES: COc1ccc(CNCCc2ccc(O)cc2)cc1O [4′-O-Methylnorbelladine]
- product formation as CYP96T1 substrate (CYP96T1): C—C phenol coupled
- kcat (CYP96T1; substrate of CYP96T1): 0.25 ± 0.0338 s⁻¹
- kcat (CYP96T1; substrate of CYP96T1, production of noroxomaritidine): 15.0 ± 2.03 L/min
- Km (CYP96T1; substrate of CYP96T1, production of (10aR,4bR)- and (10aS,4bS)-noroxomaritidine, Michaelis-Menten with substrate inhibition): 1.13 ± 0.5 µM

SMILES: COc1cc2c(cc1O)[C@@H](Cc1ccc(O)cc1)NCC2 [(R)-Coclaurine]
- product formation as CYP96T1 substrate (CYP96T1): yield products with a mass −2 m/z

SMILES: COc1cc2c(cc1O)[C@H](Cc1ccc(O)cc1)NCC2 [(S)-Coclaurine]
- product formation as CYP96T1 substrate (CYP96T1): yield products with a mass −2 m/z

SMILES: CN(CCc1ccc(O)cc1)Cc1ccc(O)c(O)c1 [N-methylnorbelladine]
- product formation as CYP96T1 substrate (CYP96T1): Product formation is not observed

SMILES: O=C(O)/C=C/c1ccc(O)c(O)c1 [caffeic acid]
- product formation / activity as NpN4OMT substrate (NpN4OMT1): Products were not detected

SMILES: [Co+2] [cobalt]
- enzymatic activity upon addition of divalent cation (NpN4OMT1): enzymatic activity improved

SMILES: NCCc1ccc(O)c(O)c1 [dopamine]
- product formation / activity as NpN4OMT substrate (NpN4OMT1): served as a substrate, but with less efficiency
- kcat (NpN4OMT1; substrate of NpN4OMT1, ± = Standard error, ND = Not detected): 0.06 ± 0.0025 s⁻¹
- Km (NpN4OMT1; substrate of NpN4OMT1, ± = Standard error, ND = Not detected, AdoMet determined with norbelladine as the saturated substrate): 7.3 ± 2.7 µM

SMILES: [Mg+2] [magnesium]
- enzymatic activity upon addition of divalent cation (NpN4OMT1): increased fourfold more

SMILES: Oc1ccc(CCNCc2ccc(O)c(O)c2)cc1 [norbelladine]
- product formation as CYP96T1 substrate (CYP96T1): Product formation is not observed

SMILES: NCCc1ccc(O)cc1 [tyramine]
- product formation / activity as NpN4OMT substrate (NpN4OMT1; text statement): Products were not detected
- product formation / activity as NpN4OMT substrate (NpN4OMT1; text statement, listed as Tyramine): not methylated

SMILES: COc1cc(C=O)ccc1O [vanillin]
- product formation / activity as NpN4OMT substrate (NpN4OMT1; text statement): Products were not detected
